Experimental data published in US7928107B2, “Quinazolines useful as modulators of ion channels” (Vertex Pharmaceuticals Incorporated, priority 2004, dated 2011).

Biological target: NaV 1.8 channel (Homo sapiens, UniProt Q9Y5Y9)
Experiment: Activity against NaV 1.8 channel (optical membrane potential assay)
Type: cell-based
Procedure, shortened: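 Cells expressing the NaV of interest loaded with CC2-DMPE (30 min, room temperature) then DiSBAC2(3) with ABSCl and veratridine; compound incubated 20–30 min. Depolarization triggered by sodium add-back and read on VIPR as 460/580 nm FRET ratio (Rf/Ri), normalized to tetracaine and untreated controls.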

NaV 1.8 channel, sequence (Q9Y5Y9 whole entry): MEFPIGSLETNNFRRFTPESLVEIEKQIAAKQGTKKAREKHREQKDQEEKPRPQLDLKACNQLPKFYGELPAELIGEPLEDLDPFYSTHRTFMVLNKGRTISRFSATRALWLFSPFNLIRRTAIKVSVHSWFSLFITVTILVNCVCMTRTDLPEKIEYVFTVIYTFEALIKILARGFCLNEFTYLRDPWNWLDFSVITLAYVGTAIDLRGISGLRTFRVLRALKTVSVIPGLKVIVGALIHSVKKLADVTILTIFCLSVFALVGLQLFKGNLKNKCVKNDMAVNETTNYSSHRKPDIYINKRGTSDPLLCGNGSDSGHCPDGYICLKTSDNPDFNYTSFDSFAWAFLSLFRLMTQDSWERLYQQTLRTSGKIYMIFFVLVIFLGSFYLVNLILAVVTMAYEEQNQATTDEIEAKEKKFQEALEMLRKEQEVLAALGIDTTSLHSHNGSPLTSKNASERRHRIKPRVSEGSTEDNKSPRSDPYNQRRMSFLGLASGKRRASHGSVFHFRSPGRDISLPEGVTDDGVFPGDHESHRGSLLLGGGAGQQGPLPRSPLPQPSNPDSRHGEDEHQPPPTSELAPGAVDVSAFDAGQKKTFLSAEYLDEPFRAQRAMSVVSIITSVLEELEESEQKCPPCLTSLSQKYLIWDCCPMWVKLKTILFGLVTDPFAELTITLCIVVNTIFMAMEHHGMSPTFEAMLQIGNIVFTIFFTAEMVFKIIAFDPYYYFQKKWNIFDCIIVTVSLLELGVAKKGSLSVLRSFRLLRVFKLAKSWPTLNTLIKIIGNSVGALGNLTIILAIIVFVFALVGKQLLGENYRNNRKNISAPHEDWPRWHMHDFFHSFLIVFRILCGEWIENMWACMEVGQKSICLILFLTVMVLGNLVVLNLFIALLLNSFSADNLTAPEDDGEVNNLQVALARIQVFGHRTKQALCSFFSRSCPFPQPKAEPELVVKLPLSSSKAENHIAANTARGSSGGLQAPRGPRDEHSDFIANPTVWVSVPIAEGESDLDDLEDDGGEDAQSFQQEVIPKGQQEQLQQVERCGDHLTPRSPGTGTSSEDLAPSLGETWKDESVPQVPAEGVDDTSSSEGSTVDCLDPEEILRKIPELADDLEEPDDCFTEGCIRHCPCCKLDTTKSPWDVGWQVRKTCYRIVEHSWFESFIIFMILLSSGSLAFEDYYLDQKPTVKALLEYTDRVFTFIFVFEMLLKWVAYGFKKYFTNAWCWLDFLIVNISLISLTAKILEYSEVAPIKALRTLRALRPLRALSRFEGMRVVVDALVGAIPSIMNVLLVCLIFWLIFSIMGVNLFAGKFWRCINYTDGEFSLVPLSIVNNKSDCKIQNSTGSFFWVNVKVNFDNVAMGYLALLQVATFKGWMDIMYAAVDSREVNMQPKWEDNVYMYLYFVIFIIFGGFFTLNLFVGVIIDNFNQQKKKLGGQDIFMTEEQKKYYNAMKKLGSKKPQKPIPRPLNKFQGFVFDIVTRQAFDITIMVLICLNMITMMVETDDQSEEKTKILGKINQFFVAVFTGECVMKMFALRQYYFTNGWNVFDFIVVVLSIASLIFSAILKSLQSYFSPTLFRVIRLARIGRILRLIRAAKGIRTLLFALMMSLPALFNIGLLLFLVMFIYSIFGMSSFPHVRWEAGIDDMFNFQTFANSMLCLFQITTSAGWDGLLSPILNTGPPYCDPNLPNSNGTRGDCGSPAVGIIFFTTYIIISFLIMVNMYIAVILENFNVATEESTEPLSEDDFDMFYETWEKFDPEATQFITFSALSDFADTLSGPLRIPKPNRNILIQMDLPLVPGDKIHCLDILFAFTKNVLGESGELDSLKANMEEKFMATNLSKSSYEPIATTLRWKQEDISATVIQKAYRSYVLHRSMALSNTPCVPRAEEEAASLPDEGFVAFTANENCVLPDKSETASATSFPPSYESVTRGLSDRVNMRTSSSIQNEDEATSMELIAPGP

| SMILES | IC50 |
| --- | --- |
| O=C(NC1CCN(c2nc(-c3ccccc3O)nc3ccc(F)cc23)CC1)[C@H]1CCCO1 [Example 224, (2R)—N-(1-(6-Fluoro-2-(2-hydroxyphenyl)quinazolin-4-yl)piperidin-4-yl)-tetrahydrofuran-2-carboxamide] | > 10 µM |
| Cc1ccc2c(N3CCC(NC(=O)CCc4cccnc4)CC3)nc(-c3ccccc3O)nc2c1 [Example 225, N-{1-[2-(2-Hydroxy-phenyl)-7-methyl-quinazolin-4-yl]-piperidin-4-yl}-3-pyridin-3-yl-propionamide] | > 10 µM |
| Cc1ccc2c(N3CCC[C@@H](CNC(=O)C4CC4)C3)nc(-c3ccccc3O)nc2c1 [Example 226, N—(((S)-1-(2-(2-Hydroxyphenyl)-7-methylquinazolin-4-yl)piperidin-3-yl)methyl)cyclopropanecarboxamide] | > 10 µM |
| Cc1ccc2c(N3CCC(NC(=O)OCc4cccnc4)CC3)nc(-c3ccccc3O)nc2c1 [Example 227, (Pyridin-3-yl)methyl 1-(2-(2-hydroxyphenyl)-7-methylquinazolin-4-yl)piperidin-4-ylcarbamate] | > 10 µM |
| Cc1ccc2c(N3CCC(NC(=O)OCc4ccncc4)CC3)nc(-c3ccccc3O)nc2c1 [Example 228, (Pyridin-4-yl)methyl 1-(2-(2-hydroxyphenyl)-7-methylquinazolin-4-yl)piperidin-4-ylcarbamate] | > 10 µM |
| Cc1ccc2c(N3CCC(NC(=O)OCc4cccc5c4OCO5)CC3)nc(-c3ccccc3O)nc2c1 [Example 229, (Benzo[d][1,3]dioxol-7-yl)methyl 1-(2-(2-hydroxyphenyl)-7-methylquinazolin-4-yl)piperidin-4-ylcarbamate] | > 10 µM |
| Cc1ccc2c(N3CCCC(C(=O)NCC4CCCO4)C3)nc(-c3ccccc3O)nc2c1 (stereo not shown) [Example 230, N-((Tetrahydrofuran-2-yl)methyl)-1-(2-(2-hydroxyphenyl)-7-methylquinazolin-4-yl)piperidine-3-carboxamide] | 2 to 10 µM |
| Cc1ccc2c(N3CCC[C@@H](CNC(=O)O[C@H]4CCOC4)C3)nc(-c3c(O)cccc3F)nc2c1 [Example 231, (S)-Tetrahydrofuran-3-yl ((S)-1-(2-(2-fluoro-6-hydroxyphenyl)-7-methylquinazolin-4-yl)piperidin-3-yl)methylcarbamate] | 2 to 10 µM |
| Cc1ccc2c(N3CCC(NC(=O)[C@H](O)CC(C)(C)C)CC3)nc(-c3ccccc3O)nc2c1 [Example 232, (2R)-2-Hydroxy-N-(1-(2-(2-hydroxyphenyl)-7-methylquinazolin-4-yl)piperidin-4-yl)-4,4-dimethylpentanamide] | 2 to 10 µM |
| Cc1ccc2c(N3CCC(NC(=O)C(C)(C)O)CC3)nc(-c3ccccc3O)nc2c1 [Example 233, 2-Hydroxy-N-(1-(2-(2-hydroxyphenyl)-7-methylquinazolin-4-yl)piperidin-4-yl)-2-methylpropanamide] | > 10 µM |
| CCC(O)(CC)C(=O)NC1CCN(c2nc(-c3ccccc3O)nc3cc(C)ccc23)CC1 [Example 234, 2-Ethyl-2-hydroxy-N-(1-(2-(2-hydroxyphenyl)-7-methylquinazolin-4-yl)piperidin-4-yl)butanamide] | > 10 µM |
| CC(C)(O)C(=O)NC1CCN(c2nc(-c3ccccc3O)nc3ccccc23)CC1 [Example 235, 2-Hydroxy-N-(1-(2-(2-hydroxyphenyl)quinazolin-4-yl)piperidin-4-yl)-2-methylpropanamide] | 2 to 10 µM |
| CC[C@@H](O)C(=O)NC1CCN(c2nc(-c3ccccc3O)nc3ccccc23)CC1 [Example 236, (2R)-2-Hydroxy-N-(1-(2-(2-hydroxyphenyl)quinazolin-4-yl)piperidin-4-yl)butanamide] | > 10 µM |
| CC[C@H](O)C(=O)NC1CCN(c2nc(-c3ccccc3O)nc3ccccc23)CC1 [Example 237, (2S)-2-Hydroxy-N-(1-(2-(2-hydroxyphenyl)quinazolin-4-yl)piperidin-4-yl)butanamide] | > 10 µM |
| CCCCC(O)C(=O)NC1CCN(c2nc(-c3ccccc3O)nc3ccccc23)CC1 (stereo not shown) [Example 238, 2-Hydroxy-N-(1-(2-(2-hydroxyphenyl)quinazolin-4-yl)piperidin-4-yl)hexanamide] | > 10 µM |
| CC(O)(C(=O)NC1CCN(c2nc(-c3ccccc3O)nc3ccccc23)CC1)C(F)(F)F (stereo not shown) [Example 239, 2-(Trifluoromethyl)-2-hydroxy-N-(1-(2-(2-hydroxyphenyl)quinazolin-4-yl)piperidin-4-yl)propanamide] | > 10 µM |
| CCC(O)(CC)C(=O)NC1CCN(c2nc(-c3ccccc3O)nc3ccccc23)CC1 [Example 240, 2-Ethyl-2-hydroxy-N-(1-(2-(2-hydroxyphenyl)quinazolin-4-yl)piperidin-4-yl)butanamide] | > 10 µM |
| CCCC(O)C(=O)NC1CCN(c2nc(-c3ccccc3O)nc3ccccc23)CC1 (stereo not shown) [Example 241, 2-Hydroxy-N-(1-(2-(2-hydroxyphenyl)quinazolin-4-yl)piperidin-4-yl)pentanamide] | > 10 µM |
| CCC(C)(O)C(=O)NC1CCN(c2nc(-c3ccccc3O)nc3ccccc23)CC1 (stereo not shown) [Example 242, 2-Hydroxy-N-(1-(2-(2-hydroxyphenyl)quinazolin-4-yl)piperidin-4-yl)-2-methylbutanamide] | 2 to 10 µM |

| SMILES | IC50 |
| --- | --- |
| CC[C@@H](O)C(=O)NC1CCN(c2nc(-c3ccccc3O)nc3cc(C)ccc23)CC1 [Example 243, (2R)-2-Hydroxy-N-(1-(2-(2-hydroxyphenyl)-7-methylquinazolin-4-yl)piperidin-4-yl)butanamide] | > 10 µM |
| CC[C@H](O)C(=O)NC1CCN(c2nc(-c3ccccc3O)nc3cc(C)ccc23)CC1 [Example 244, (2S)-2-Hydroxy-N-(1-(2-(2-hydroxyphenyl)-7-methylquinazolin-4-yl)piperidin-4-yl)butanamide] | > 10 µM |
| CCCCC(O)C(=O)NC1CCN(c2nc(-c3ccccc3O)nc3cc(C)ccc23)CC1 (stereo not shown) [Example 245, 2-Hydroxy-N-(1-(2-(2-hydroxyphenyl)-7-methylquinazolin-4-yl)piperidin-4-yl)hexanamide] | > 10 µM |
| Cc1ccc2c(N3CCC(NC(=O)C(C)(O)C(F)(F)F)CC3)nc(-c3ccccc3O)nc2c1 (stereo not shown) [Example 246, 2-(Trifluoromethyl)-2-hydroxy-N-(1-(2-(2-hydroxyphenyl)-7-methylquinazolin-4-yl)piperidin-4-yl)propanamide] | > 10 µM |
| CCCC(O)C(=O)NC1CCN(c2nc(-c3ccccc3O)nc3cc(C)ccc23)CC1 (stereo not shown) [Example 247, 2-Hydroxy-N-(1-(2-(2-hydroxyphenyl)-7-methylquinazolin-4-yl)piperidin-4-yl)pentanamide] | > 10 µM |
| CCC(C)(O)C(=O)NC1CCN(c2nc(-c3ccccc3O)nc3cc(C)ccc23)CC1 (stereo not shown) [Example 248, 2-Hydroxy-N-(1-(2-(2-hydroxyphenyl)-7-methylquinazolin-4-yl)piperidin-4-yl)-2-methylbutanamide] | 2 to 10 µM |
| Cc1ccc2c(N3CCC(NC(=O)[C@H](O)CC(C)(C)C)CC3)nc(-c3c(O)cccc3F)nc2c1 [Example 249, (2R)—N-(1-(2-(2-Fluoro-6-hydroxyphenyl)-7-methylquinazolin-4-yl)piperidin-4-yl)-2-hydroxy-4,4-dimethylpentanamide] | 2 to 10 µM |
| Cc1ccc2c(N3CCCC(CNC(=O)OCC(C)C)C3)nc(-c3ccccc3O)nc2c1 (stereo not shown) [Example 250, Isobutyl (1-(2-(2-hydroxyphenyl)-7-methylquinazolin-4-yl)piperidin-3-yl)methylcarbamate] | < 2 µM |
| CCOC(=O)NCC1CCCN(c2nc(-c3ccccc3O)nc3cc(C)ccc23)C1 (stereo not shown) [Example 251, Ethyl (1-(2-(2-hydroxyphenyl)-7-methylquinazolin-4-yl)piperidin-3-yl)methylcarbamate] | 2 to 10 µM |
| Cc1ccc2c(N3CCC[C@@H](CNC(=O)OCC(C)C)C3)nc(-c3ccccc3O)nc2c1 [Example 252, Isobutyl ((S)-1-(2-(2-hydroxyphenyl)-7-methylquinazolin-4-yl)piperidin-3-yl)methylcarbamate] | > 10 µM |
| Cc1ccc2c(N3CCC[C@H](CNC(=O)OCC(C)C)C3)nc(-c3ccccc3O)nc2c1 [Example 253, Isobutyl ((R)-1-(2-(2-hydroxyphenyl)-7-methylquinazolin-4-yl)piperidin-3-yl)methylcarbamate] | > 10 µM |
| CCOC(=O)NC[C@@H]1CCCN(c2nc(-c3ccccc3O)nc3cc(C)ccc23)C1 [Example 254, Ethyl((S)-1-(2-(2-hydroxyphenyl)-7-methylquinazolin-4-yl)piperidin-3-yl)methylcarbamate] | 2 to 10 µM |
| Cc1ccc2c(N3CCC[C@@H](CNC(=O)OC(C)C)C3)nc(-c3ccccc3O)nc2c1 [Example 255, Isopropyl ((S)-1-(2-(2-hydroxyphenyl)-7-methylquinazolin-4-yl)piperidin-3-yl)methylcarbamate] | > 10 µM |
| CCCOC(=O)NC[C@@H]1CCCN(c2nc(-c3ccccc3O)nc3cc(C)ccc23)C1 [Example 256, Propyl ((S)-1-(2-(2-hydroxyphenyl)-7-methylquinazolin-4-yl)piperidin-3-yl)methylcarbamate] | 2 to 10 µM |
| COCCOC(=O)NC[C@@H]1CCCN(c2nc(-c3ccccc3O)nc3cc(C)ccc23)C1 [Example 257, 2-Methoxyethyl ((S)-1-(2-(2-hydroxyphenyl)-7-methylquinazolin-4-yl)piperidin-3-yl)methylcarbamate] | 2 to 10 µM |
| COCCOC(=O)NC1CCN(c2nc(-c3ccccc3O)nc3ccc(F)cc23)CC1 [Example 258, 2-Methoxyethyl 1-(6-fluoro-2-(2-hydroxyphenyl)quinazolin-4-yl)piperidin-4-ylcarbamate] | < 2 µM |
| Cc1ccc2c(N3CCC(NC(=O)OC(C)(C)C)CC3)nc(-c3ccccc3O)nc2c1 [Example 259, {1-[2-(2-Hydroxy-phenyl)-7-methyl-quinazolin-4-yl]-piperidin-4-yl}-carbamic acid tert-butyl ester] | < 2 µM |
| Cc1ccc2c(N3CCC[C@@H](CNC(=O)OCC(C)C)C3)nc(-c3c(O)cccc3F)nc2c1 [Example 260, Isobutyl ((S)-1-(2-(2-fluoro-6-hydroxyphenyl)-7-methylquinazolin-4-yl)piperidin-3-yl)methylcarbamate] | < 2 µM |
